Consider 6 compounds from ChEMBL document CHEMBL1909046, “DrugMatrix in vitro pharmacology data”.

Experiment [1] concerns the target Sodium-dependent dopamine transporter (Homo sapiens, UniProt Q01959). Nature of the experiment: DRUGMATRIX: Dopamine Transporter radioligand binding (ligand: [125I] RTI-55). The class given is cell membranes, CHO-K1, Membrane. Particulars: cho-k1; Not Active = under 50% inhibition at 10 µM.
Experiment [2] deals with cGMP-specific 3',5'-cyclic phosphodiesterase (Homo sapiens, UniProt O76074). Nature of the experiment: DRUGMATRIX: Phosphodiesterase PDE5 enzyme inhibition (substrate: [3H]cGMP + cGMP). The format is tissue-based. As to conditions: platelet; Not Active = under 50% inhibition at 10 µM.
The target in experiment [3] is T1, Glucocorticoid receptor (Homo sapiens, UniProt P04150). Note: in other assays of this panel Not Active means under 50% inhibition at 10 µM.
T1 sequence (P04150 whole entry): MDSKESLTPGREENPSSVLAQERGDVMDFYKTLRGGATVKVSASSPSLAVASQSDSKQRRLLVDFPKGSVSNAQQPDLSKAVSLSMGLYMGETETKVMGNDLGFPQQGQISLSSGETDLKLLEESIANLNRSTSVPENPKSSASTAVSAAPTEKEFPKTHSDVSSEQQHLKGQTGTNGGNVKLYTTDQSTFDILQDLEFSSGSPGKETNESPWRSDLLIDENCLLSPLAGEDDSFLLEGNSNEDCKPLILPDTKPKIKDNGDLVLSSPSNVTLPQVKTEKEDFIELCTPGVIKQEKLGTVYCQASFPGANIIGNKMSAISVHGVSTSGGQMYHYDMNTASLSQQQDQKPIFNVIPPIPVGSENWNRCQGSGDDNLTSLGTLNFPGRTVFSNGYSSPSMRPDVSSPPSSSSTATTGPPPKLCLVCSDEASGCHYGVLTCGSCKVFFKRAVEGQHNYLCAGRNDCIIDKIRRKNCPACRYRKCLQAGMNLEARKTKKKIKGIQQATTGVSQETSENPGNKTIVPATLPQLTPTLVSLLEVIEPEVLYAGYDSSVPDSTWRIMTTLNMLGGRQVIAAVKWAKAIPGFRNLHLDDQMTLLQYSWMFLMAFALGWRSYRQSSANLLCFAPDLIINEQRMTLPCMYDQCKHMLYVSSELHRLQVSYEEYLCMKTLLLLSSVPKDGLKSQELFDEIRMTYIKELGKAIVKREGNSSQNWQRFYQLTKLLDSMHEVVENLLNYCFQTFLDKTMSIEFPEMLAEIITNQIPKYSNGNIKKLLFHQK
Particulars: hela s3.

In experiment [4] the target is T2, Vasoactive intestinal polypeptide receptor 1 (Homo sapiens, UniProt P32241). Note: in other assays of this panel Not Active means under 50% inhibition at 10 µM.
T2 sequence (P32241 whole entry): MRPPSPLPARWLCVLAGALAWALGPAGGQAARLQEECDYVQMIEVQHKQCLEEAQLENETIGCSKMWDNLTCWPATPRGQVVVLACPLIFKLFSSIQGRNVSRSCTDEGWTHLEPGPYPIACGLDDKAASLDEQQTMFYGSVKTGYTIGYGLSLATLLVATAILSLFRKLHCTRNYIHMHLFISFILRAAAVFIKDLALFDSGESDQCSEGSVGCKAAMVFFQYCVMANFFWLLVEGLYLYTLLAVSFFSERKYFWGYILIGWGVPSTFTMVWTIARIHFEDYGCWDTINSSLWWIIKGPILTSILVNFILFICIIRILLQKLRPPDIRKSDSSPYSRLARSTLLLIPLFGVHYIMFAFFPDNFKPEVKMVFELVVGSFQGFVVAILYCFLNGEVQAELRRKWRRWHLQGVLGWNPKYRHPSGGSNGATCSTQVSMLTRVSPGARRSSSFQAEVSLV
The format is cell membranes, Membrane. Particulars: ht-29.

The target in experiment [5] is Platelet-activating factor receptor (Homo sapiens, UniProt P25105). The format is tissue-based. Note: in other assays of this panel Not Active means under 50% inhibition at 10 µM.
Chain of Platelet-activating factor receptor (P25105 whole entry): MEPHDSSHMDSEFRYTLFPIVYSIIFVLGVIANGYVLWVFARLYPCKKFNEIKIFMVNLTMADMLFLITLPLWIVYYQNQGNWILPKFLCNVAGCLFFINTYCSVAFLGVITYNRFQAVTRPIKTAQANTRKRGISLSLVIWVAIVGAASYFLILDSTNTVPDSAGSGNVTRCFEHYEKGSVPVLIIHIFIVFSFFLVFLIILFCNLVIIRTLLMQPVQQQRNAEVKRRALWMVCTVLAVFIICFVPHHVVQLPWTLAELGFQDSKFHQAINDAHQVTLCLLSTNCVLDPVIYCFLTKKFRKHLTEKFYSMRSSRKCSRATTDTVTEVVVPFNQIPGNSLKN
Experiment [6] in a line: DRUGMATRIX: Atrial Natriuretic Factor (ANF) radioligand binding (ligand: [125I] ANF (rat)). The class given is cell membranes, Cavia porcellus, Dunkin-Hartley, Adrenal gland, Membrane. Particulars: Not Active = under 50% inhibition at 10 µM.
For experiment [7], the target named is T3, Neuropeptide Y receptor type 1 (Homo sapiens, UniProt P25929). Note: in other assays of this panel Not Active means under 50% inhibition at 10 µM.
T3 sequence (P25929 whole entry): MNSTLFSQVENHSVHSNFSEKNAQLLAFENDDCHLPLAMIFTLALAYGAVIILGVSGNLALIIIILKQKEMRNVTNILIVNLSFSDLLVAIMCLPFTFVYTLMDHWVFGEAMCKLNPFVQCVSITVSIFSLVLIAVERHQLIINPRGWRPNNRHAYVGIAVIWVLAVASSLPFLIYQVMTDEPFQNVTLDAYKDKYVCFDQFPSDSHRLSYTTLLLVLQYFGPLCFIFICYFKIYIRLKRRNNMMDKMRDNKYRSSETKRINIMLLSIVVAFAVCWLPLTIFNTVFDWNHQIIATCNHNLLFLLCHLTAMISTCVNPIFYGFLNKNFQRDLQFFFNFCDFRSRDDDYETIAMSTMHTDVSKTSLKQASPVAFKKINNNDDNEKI
The class given is cell membranes, Membrane. Particulars: sk-n-mc.

The target of experiment [8] is Epidermal growth factor receptor (Homo sapiens, UniProt P00533). Nature of the experiment: DRUGMATRIX: Protein Tyrosine Kinase, EGF Receptor enzyme inhibition (substrate: Poly(Glu:Tyr)). The class given is cell-based, Insect cells. As to conditions: insect cells, Not Active = under 50% inhibition at 10 µM.

Chain of Sodium-dependent dopamine transporter (Q01959 whole entry): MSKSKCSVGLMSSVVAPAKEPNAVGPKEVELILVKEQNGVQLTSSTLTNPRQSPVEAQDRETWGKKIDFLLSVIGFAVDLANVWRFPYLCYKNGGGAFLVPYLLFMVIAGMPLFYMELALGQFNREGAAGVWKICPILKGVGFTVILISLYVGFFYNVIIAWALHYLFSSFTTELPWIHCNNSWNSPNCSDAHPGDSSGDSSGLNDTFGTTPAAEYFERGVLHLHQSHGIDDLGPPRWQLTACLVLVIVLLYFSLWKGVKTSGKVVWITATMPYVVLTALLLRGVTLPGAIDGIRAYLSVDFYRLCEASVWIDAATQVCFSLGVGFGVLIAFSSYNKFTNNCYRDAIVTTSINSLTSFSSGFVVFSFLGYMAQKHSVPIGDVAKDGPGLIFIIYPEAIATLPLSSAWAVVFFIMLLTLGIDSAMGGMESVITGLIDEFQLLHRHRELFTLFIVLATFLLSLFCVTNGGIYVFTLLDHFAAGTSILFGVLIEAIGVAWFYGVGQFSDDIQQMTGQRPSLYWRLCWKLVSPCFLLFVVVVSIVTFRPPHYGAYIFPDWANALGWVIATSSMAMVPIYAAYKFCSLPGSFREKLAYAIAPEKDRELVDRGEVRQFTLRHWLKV

A word on the IC50: it is the midpoint of a concentration-inhibition curve. With `Cc1ccc(N(CC2=NCCN2)c2cccc(O)c2)cc1` [PHENTOLAMINE], the IC50 entry in experiment [1], in experiment [2], in experiment [3], in experiment [4], in experiment [5] and in experiment [6] was “Not Active” each time. The IC50 entry in experiment [7] and in experiment [8] was “Not Active” in each case. Also, the Ki entry in experiment [6] was “Not Active”.
Regarding `CNNCc1ccc(C(=O)NC(C)C)cc1` [PROCARBAZINE], the IC50 entry in experiment [1], in experiment [2], in experiment [3], in experiment [4], in experiment [5] and in experiment [6] was “Not Active” in each case. In addition, the IC50 result in experiment [7] and in experiment [8] was “Not Active” throughout. For the same compound, the Ki entry in experiment [6] is “Not Active”.
`CC(O)CO` (stereo not drawn) [PROPYLENE GLYCOL]: the IC50 entry in experiment [1], in experiment [2], in experiment [3], in experiment [4], in experiment [5] and in experiment [6] was “Not Active” each time. Further, the IC50 entry in experiment [7] and in experiment [8] was “Not Active” throughout. Besides, in experiment [6], the Ki entry was “Not Active”.
For the compound CADMIUM ACETATE, the IC50 result in experiment [1], in experiment [2], in experiment [3], in experiment [4], in experiment [5] and in experiment [6] was “Not Active” throughout. The IC50 result in experiment [7] is “Not Active”; in experiment [8] (read-out: IC50), 244 nM. The Ki entry in experiment [1], in experiment [2], in experiment [3], in experiment [4], in experiment [5] and in experiment [6] was “Not Active” each time. In experiment [7], the Ki entry is reported as “Not Active”.
On to LEAD (II) ACETATE, for which the IC50 result in experiment [1], in experiment [2], in experiment [3], in experiment [4], in experiment [5] and in experiment [6] was “Not Active” each time. Also, the half-maximal inhibitory concentration (IC50) result in experiment [7] and in experiment [8] was “Not Active” in each case. Also, the Ki result in experiment [1], in experiment [2], in experiment [3], in experiment [4], in experiment [5] and in experiment [6] was “Not Active” in each case. Besides, the Ki result in experiment [7] and in experiment [8] was “Not Active” in each case.
Turning to LIPOPOLYSACCHARIDE E. COLI O55:B5, the IC50 entry in experiment [1], in experiment [2], in experiment [3], in experiment [4], in experiment [5] and in experiment [6] was “Not Active” throughout. The IC50 result was “Not Active” in experiment [7] and 188 nM in experiment [8] (read-out: IC50). Moreover, the Ki result in experiment [1], in experiment [2], in experiment [3], in experiment [4], in experiment [5] and in experiment [6] was “Not Active” in each case. In addition, the Ki result in experiment [7] was “Not Active”.
